Key:
[1] = test system: ethylene binding site in tobacco leaves; experiment: Ethylene binding (14C-ethylene) in tobacco leaves, incl. Scatchard DACP-ethylene competition; design: species or system Nicotiana tabacum L.; conditions: for Binding (% of untreated control), Tobacco leaves, Dark / Binding (% of untreated control), Tobacco leaves, Light: measured 48 hours after exposure
Description: (§1) Plant material was exposed to ^14 C-ethylene in the presence or absence of unlabeled ethylene. Usually exposure was for two hours. After this time, material was aired for two minutes and placed in 250 or 500 ml jars containing mercury perchlorate in liquid scintillation vials which also contained fiberglass filter to increase the surface area for 24 hours. The vials were then removed, scintillation fluid added and the samples counted in a liquid scintillation counter. All measurements were corrected for unbound ethylene. When the number of binding sites inactivated by DACP in the light were desired, samples were aired 48 hours before measuring ethylene binding to allow the DACP not undergoing a light reaction to diffuse away.
(§2) Experiments in the Examples below were carried out under normal laboratory fluorescent lights. The light intensity was 560 lux at the laboratory bench level. Normally treatment was inside 2.5 liter desiccators and the amount of light reaching the plant material was measured to average 448 lux or 80% of the incident light. When more light was needed, desiccators were moved to a position where the intensity was 2700 lux outside the desiccators. The amount of light reaching the plant material was measured to be 2160 lux.
Tobacco leaves (Nicotiana tabacum L.) were grown in a greenhouse. Leaves were harvested when approximately 10 cm in length, the midrib removed and allowed to stand overnight for wound ethylene to subside. After incubating tobacco leaves with DACP for three hours under fluorescent lights at 448 lux of fluorescent light, some of the ethylene binding site present, as assayed by ^14 C-labeled ethylene disappears. As the concentration of DACP increases, the amount of binding site remaining decreases. The curve (FIG. 1) appears to be biphasic with a decrease of 80% of binding between 0 and 40 μl/l at DACP. Addition of an additional 80 μl/l of DACP reduced binding further 10%. […] In all previous cases, compounds diffused from the binding site with a half life of three to six hours.
(§3) Scatchard plots are used to determine the binding constants of compounds. An underlying assumption using this method is that the reaction is reversible. Using DACP in the light leads to an irreversible complex and the Scatchard plot is not valid. It can be made and compared with the competition in the dark to evaluate the relative effectiveness of the compound in the light versus dark. FIGS. 6 and 7 represent plots for tobacco leaves and mung bean sprouts in the light and in the dark. It can be seen from these two figures that there are apparently two classes of sites present in both tobacco leaves and mung bean sprouts. The values are much lower in the light which would be expected if the site is being permanently removed. A greater portion of the binding sites appears to be occupied in the competition experiments (FIGS. 6, 7) than in experiments in which added ethylene is not present (FIGS. 3, 4, 5).

[2] = test system: ethylene binding site in mung bean sprouts; experiment: Ethylene binding (14C-ethylene) in mung bean sprouts, incl. Scatchard DACP-ethylene competition; design: species or system Vigna radiata L.; conditions: for Binding (% of untreated control), Mung bean sprouts, Dark / Binding (% of untreated control), Mung bean sprouts, Light: measured 24 hours after exposure
Description: as §1
(§4) Mung beans (Vigna radiata L.) were germinated in the dark for four days. At this point 10-12 sprouts were placed in 3 liter containers, and treated with DACP and ethylene as indicated in the individual Examples below. Ethylene was changed each day and seedlings were retreated with DACP at seven days. The height was measured at ten days. Light was 560 lux throughout the experiment after the four-day germination in the dark.
as §2, §3

mung bean seedlings = experiment: Growth inhibition of mung bean seedlings by ethylene; assay type: in vivo, Vigna radiata L.
Description: as §4, with “Light was 560 lux throughout the experiment after the four-day germination in the dark.” left out

Tomato fruit = experiment: Tomato ripening (red/green reflectance ratio); assay type: in vivo, Lycopersicon esculentum, Mill; conditions: 25° C.
Description: Plant Material. Tomatoes (Lycopersicon esculentum, Mill) were obtained from a wholesale distributor.
Chemicals. DACP was prepared as previously described and kept as a 4-8% solution in hexane. Treatment was in a 3 l container. DACP was pipetted as a hexane solution onto paper towel to facilitate evaporation. After sealing, the containers were kept in darkness or exposed to 448 lux of fluorescent light for 24 hours. After 24 hours, containers were aired out for 24 hours. Those containers kept in darkness were aired in darkness. Subsequently the ethylene treatment was started and all samples were kept in 448 lux of fluorescent light. The gas phase was changed each day.
Ripening. Ripening was measured with an Agtron reflectance spectrophotometer (Magnson Engineers, Inc., Instruments Division, San Jose, Calif.) which measures the ratio of red/green light reflected from the tomato.

Cut purple petunias = experiment: Cut flower longevity, petunias; assay type: in vivo, Petunia hydrida; conditions: volatile DACP
Description: Cut purple petunias (Petunia hydrida) are treated with volatile DACP in the same manner as described above.

Carnation = experiment: Cut flower longevity, carnation; assay type: in vivo, Dianthus caryophyllus; conditions: volatile DACP
Potted poinsettia = experiment: Protection of potted poinsettia from ethylene; assay type: in vivo, Euphorbia pulcherima; conditions: volatile DACP
Description: Potted poinsettia (Euphorbia pulcherima) is treated with volatile DACP in the same manner as described above, and then exposed to ethylene to determine if the DACP would protect the poinsettia from the ethylene.

beans = experiment: Ethylene-induced leaf abscission in beans; assay type: in vivo, Phaseolus vulgaris; conditions: DACP vapor
ethylene binding = conditions: Plant Growth Reg. 9, 157-164 (1990); cited from earlier work
[3] = DARK, DACP 120 ul/l + 10 μl/l E
[4] = DARK, DACP 120 ul/l as a gas, no ethylene
[5] = LIGHT, DACP 120 ul/l + 10 μl/l E
[6] = LIGHT, DACP 120 ul/l + 100 μl/l E
[7] = LIGHT, DACP 120 ul/l as a gas, no ethylene

SMILES: [N-]=[N+]=C1C=CC=C1 [Diazocyclopentadiene]
- Binding (% of untreated control), Tobacco leaves, Dark [1]: 100 % of untreated control
- Binding (% of untreated control), Tobacco leaves, Light [1]: 27 % of untreated control
- further reduction of binding ([1]; additional 80 μl/l of DACP, three hours at 448 lux (FIG. 1), 180 min): 10%
- decrease of binding ([1]; between 0 and 40 μl/l DACP, three hours at 448 lux fluorescent light (FIG. 1), 180 min): 80%
- half life of reappearance of the binding site after DACP is removed ([1]; in the dark, 245 μl/l (gas) DACP (FIG. 2A)): about 15 hours
- binding site after incubation with DACP ([1]; incubated in darkness, 245 μl/l (gas) DACP (FIG. 2A)): most of the binding site disappears
- reappearance of the binding site after DACP is removed ([1]; leaves preincubated in the light before removing the DACP (FIG. 2A)): does not reappear or if it does it does so only very slowly over many days
- amount of binding site after 24 additional hours ([1]; same leaves re-assayed without retreating with DACP): appears to remain constant
- amount of binding site inactivated, prebound DACP versus DACP present during the light treatment ([1]; two hours DACP in the dark, aired one hour, then light): No difference
- time in which most of the light reaction has occurred ([2]; 448 lux, presaturated site (FIG. 3)): ≤ 30 min
- Binding (% of untreated control), Mung bean sprouts, Dark [2]: 100 % of untreated control
- Binding (% of untreated control), Mung bean sprouts, Light [2]: 24 % of untreated control
- time in which most of the decrease in binding occurs (diffusion to the binding site) ([2]; after release as a liquid (FIG. 3)): ≤ 15 min
- time for 1/2 of the binding site to be regenerated ([2]; in darkness, 245 μl/l (gas) DACP (FIG. 2B)): about two
- % of Control (mung bean seedlings; [3]): 16 % of Control
- Height (cm) (mung bean seedlings; [3]): 1.5 cm
- % of Control (mung bean seedlings; [4]): 94 % of Control
- Height (cm) (mung bean seedlings; [4]): 9.0 cm
- % of Control (mung bean seedlings; [5]): 80 % of Control
- Height (cm) (mung bean seedlings; [5]): 7.6 cm
- % of Control (mung bean seedlings; [6]): 53 % of Control
- Height (cm) (mung bean seedlings; [6]): 5.0 cm
- Height (cm) (mung bean seedlings; LIGHT, DACP 120 ul/l + 1000 μl/l E): 2.3 cm
- % of Control (mung bean seedlings; LIGHT, DACP 120 ul/l + 1000 μl/l E, 14400 min): 3.6 % of Control
- % of Control (mung bean seedlings; [7]): 93 % of Control
- Height (cm) (mung bean seedlings; [7]): 8.9 cm
- time by which all of the tomatoes were nearly ripe (Tomato fruit; DACP in the light): ≤ 25 days
- ratio of red to green (Tomato fruit; single exposure in the light, whether or not 1000 μl/l of ethylene was present (FIG. 8)): remained constant for ten days
- effect on ripening (Tomato fruit; DACP applied in the dark): only a small effect
- time to ripe as indicated by the red/green ratio (Tomato fruit; DACP applied in the dark): ripe in ten days
- longevity of the flower (Cut purple petunias): found to increase
- longevity of the flower (Carnation): likewise found to increase
- signs of injury from DACP (Potted poinsettia): No signs of injury
- death of the flowers (cyanthum) in response to ethylene (Potted poinsettia; then exposed to ethylene): died in response to the ethylene in the controls but not on the DACP treated plants
- ethylene-induced leaf abscission (beans): found to prevent ethylene-induced leaf abscission

SMILES: C1=CCC=C1 [cyclopentadiene]
- blocking of ethylene binding (ethylene binding): effective blocking agent for ethylene binding

SMILES: C=C [Ethylene]
- Binding (% of untreated control), Tobacco leaves, Dark [1]: 100 % of untreated control
- Binding (% of untreated control), Tobacco leaves, Light [1]: 100 % of untreated control
- Binding (% of untreated control), Mung bean sprouts, Dark [2]: 100 % of untreated control
- Binding (% of untreated control), Mung bean sprouts, Light [2]: 100 % of untreated control
- % of Control (mung bean seedlings; DARK, 10 μl/l E): 16 % of Control
- Height (cm) (mung bean seedlings; DARK, 10 μl/l E): 1.5 cm
- % of Control (mung bean seedlings; LIGHT, 10 μl/l E): 16 % of Control
- Height (cm) (mung bean seedlings; LIGHT, 10 μl/l E): 1.5 cm
- % of Control (mung bean seedlings; LIGHT, 1000 μl/l E): 16 % of Control
- Height (cm) (mung bean seedlings; LIGHT, 1000 μl/l E): 1.5 cm
- 1/2 maximum of ethylene for growth inhibition (Lineweaver-Burk plot) (mung bean seedlings; after exposure to DACP): 50 μl/l
